Reference: ChEMBL document CHEMBL1201862, “PubChem BioAssay data set” (2004)
Several values for one entry are separate records, joined by “and”; a condition that tells them apart may be missing. Equal entries are not always repeated. Activity calls are given as the source filed them.

What was measured:
[1] = target: T1, Polyadenylate-binding protein 1 (Homo sapiens, UniProt P11940); assay: MLLE domain peptide-binding blockers, IC50 – biochemical, fluorescence polarization, FITC-PAM2 peptide, dose response (AID 602259); assay type: functional; conditions: read-out: IC50_Mean
T1 sequence (P11940 whole entry, the tested form may be a part): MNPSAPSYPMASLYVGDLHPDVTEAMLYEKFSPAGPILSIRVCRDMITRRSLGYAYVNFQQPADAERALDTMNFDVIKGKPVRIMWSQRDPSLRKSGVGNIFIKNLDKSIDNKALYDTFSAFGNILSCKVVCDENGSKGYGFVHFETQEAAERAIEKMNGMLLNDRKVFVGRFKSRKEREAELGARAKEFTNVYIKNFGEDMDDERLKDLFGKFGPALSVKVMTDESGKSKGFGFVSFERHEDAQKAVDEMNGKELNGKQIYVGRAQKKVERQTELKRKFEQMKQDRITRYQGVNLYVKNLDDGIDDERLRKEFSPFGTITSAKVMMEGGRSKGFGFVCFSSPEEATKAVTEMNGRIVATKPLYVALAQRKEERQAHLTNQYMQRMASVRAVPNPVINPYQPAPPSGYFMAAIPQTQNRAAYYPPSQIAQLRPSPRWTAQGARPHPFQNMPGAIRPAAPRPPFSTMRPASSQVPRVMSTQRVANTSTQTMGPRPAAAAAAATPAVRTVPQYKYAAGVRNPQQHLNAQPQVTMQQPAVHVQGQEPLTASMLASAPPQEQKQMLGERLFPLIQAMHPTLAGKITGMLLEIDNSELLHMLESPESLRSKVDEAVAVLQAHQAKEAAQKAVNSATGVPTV

[2] = target: T2, Dual specificity protein phosphatase 3 (Homo sapiens, UniProt P51452); assay: VHR1 phosphatase inhibitors, primary screen, biochemical, absorbance, uHTS (AID 1654)
T2 sequence (P51452 whole entry): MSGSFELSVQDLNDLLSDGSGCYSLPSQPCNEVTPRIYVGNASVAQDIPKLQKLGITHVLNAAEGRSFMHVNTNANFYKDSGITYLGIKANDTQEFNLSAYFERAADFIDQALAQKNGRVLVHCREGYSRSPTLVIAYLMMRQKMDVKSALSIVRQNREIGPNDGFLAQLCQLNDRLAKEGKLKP

[3] = target: T3, Dual specificity protein phosphatase 6 (Rattus norvegicus, UniProt Q64346); assay: inhibition of rat DUSP6 enzyme activity – biochemical, in vitro, primary screen (AID 425)
T3 sequence (Q64346 whole entry): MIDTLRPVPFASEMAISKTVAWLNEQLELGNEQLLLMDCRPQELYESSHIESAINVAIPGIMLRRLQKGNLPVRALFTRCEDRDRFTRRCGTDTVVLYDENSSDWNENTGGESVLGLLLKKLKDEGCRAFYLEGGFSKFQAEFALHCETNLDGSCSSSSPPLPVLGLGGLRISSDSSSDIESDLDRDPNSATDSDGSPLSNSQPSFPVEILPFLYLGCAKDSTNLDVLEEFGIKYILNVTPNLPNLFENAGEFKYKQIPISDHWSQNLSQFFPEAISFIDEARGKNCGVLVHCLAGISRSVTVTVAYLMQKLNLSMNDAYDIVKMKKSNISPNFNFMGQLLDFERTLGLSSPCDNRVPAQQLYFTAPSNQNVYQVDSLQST

[4] = target: T2, Dual specificity protein phosphatase 3; assay: SAR VHR1 Fluorescent Assay for In Vitro dose response studies. [Related pubchem assays (depositor defined):AID1654, AID1661, AID1878, AID1992, AID2004, AID2070, AID2085]; assay type: functional
[5] = target: T2, Dual specificity protein phosphatase 3; assay: SAR VHR1 absorbance Assay for In Vitro dose response studies. [Related pubchem assays (depositor defined):AID1654, AID1661, AID1878, AID1992, AID2004]
[6] = target: T2, Dual specificity protein phosphatase 3; assay: VHR1 phosphatase inhibitors, biochemical (AID 1878)
[7] = target: T3, Dual specificity protein phosphatase 6; assay type: functional
[8] = target: T2, Dual specificity protein phosphatase 3; assay: MOA VHR1 Fluorescent secondary assay for identification of redox-state modulating compounds. [Related pubchem assays (depositor defined):AID1654, AID1661, AID1878, AID1957]
[9] = target: Tyrosine-protein phosphatase non-receptor type 11 (Homo sapiens, UniProt Q06124); assay: PTPN11 enzyme inhibitors – biochemical, selectivity assay for STEP inhibitor project, dose response (AID 602367); assay type: functional; conditions: read-out: IC50_Mean
[10] = target: Tyrosine-protein phosphatase non-receptor type 5 (Homo sapiens, UniProt P54829); assay: PTPN5 enzyme inhibition – biochemical, fluorescence intensity, uHTS hits, confirmation (AID 602372); assay type: functional; conditions: read-out: IC50_Mean
Chain of Tyrosine-protein phosphatase non-receptor type 5 (P54829 whole entry): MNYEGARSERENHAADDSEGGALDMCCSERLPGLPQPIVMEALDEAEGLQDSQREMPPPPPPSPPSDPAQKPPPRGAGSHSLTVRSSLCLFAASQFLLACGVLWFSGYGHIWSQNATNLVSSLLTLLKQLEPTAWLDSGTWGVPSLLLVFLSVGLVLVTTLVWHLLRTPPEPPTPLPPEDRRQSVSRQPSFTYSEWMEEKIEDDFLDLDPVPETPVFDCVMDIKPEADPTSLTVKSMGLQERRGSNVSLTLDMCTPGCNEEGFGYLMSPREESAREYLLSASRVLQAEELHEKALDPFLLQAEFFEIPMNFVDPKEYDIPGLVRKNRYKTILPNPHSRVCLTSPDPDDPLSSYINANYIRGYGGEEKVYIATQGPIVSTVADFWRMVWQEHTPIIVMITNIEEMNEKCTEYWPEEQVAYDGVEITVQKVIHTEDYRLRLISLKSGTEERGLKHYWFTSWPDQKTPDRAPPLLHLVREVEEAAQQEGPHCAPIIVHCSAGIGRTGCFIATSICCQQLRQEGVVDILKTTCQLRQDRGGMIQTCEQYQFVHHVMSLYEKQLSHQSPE

[11] = target: T2, Dual specificity protein phosphatase 3; assay: VHR phosphatase inhibition, dose response, selectivity assay for STEP inhibitor project, biochemical (AID 602374); assay type: functional; conditions: read-out: IC50_Mean
[12] = target: T1, Polyadenylate-binding protein 1; assay: MLLE binding blockers, Cy5 peptide tracer – biochemical, fluorescence polarization, Cy5-PAM2 peptide, secondary, miRNA deadenylation inhibitor project, dose response (AID 602260); assay type: functional; conditions: read-out: IC50_Mean
[13] = target: T4, Tyrosine-protein phosphatase non-receptor type 7 (Homo sapiens, UniProt P35236); assay: redox-active compounds inhibiting HePTP phosphatase – biochemical, fluorescence, mechanism study (AID 2068); assay type: functional
T4 sequence (P35236 whole entry): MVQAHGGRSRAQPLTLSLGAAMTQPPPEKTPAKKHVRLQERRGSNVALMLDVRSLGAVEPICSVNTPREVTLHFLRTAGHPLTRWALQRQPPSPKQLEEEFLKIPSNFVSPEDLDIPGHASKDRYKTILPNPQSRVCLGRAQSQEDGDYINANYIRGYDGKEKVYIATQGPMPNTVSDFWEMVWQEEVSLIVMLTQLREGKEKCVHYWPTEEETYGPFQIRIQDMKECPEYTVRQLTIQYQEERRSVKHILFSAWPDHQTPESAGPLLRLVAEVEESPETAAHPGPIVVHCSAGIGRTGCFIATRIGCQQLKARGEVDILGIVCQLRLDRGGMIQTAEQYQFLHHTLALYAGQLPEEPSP

[14] = target: Dual specificity tyrosine-phosphorylation-regulated kinase 1A (Rattus norvegicus, UniProt Q63470); assay type: biochemical, Homo sapiens
[15] = target: T5, Nuclear receptor subfamily 0 group B member 1 (Homo sapiens, UniProt P51843); assay: Luminescence-based cell-based high throughput dose response assay for inhibitors of the orphan nuclear receptor subfamily 0, group B, member 1 (DAX1; NR0B1). [Related pubchem assays (depositor defined):AID504766, AID504790]; assay type: functional
T5 sequence (P51843 whole entry): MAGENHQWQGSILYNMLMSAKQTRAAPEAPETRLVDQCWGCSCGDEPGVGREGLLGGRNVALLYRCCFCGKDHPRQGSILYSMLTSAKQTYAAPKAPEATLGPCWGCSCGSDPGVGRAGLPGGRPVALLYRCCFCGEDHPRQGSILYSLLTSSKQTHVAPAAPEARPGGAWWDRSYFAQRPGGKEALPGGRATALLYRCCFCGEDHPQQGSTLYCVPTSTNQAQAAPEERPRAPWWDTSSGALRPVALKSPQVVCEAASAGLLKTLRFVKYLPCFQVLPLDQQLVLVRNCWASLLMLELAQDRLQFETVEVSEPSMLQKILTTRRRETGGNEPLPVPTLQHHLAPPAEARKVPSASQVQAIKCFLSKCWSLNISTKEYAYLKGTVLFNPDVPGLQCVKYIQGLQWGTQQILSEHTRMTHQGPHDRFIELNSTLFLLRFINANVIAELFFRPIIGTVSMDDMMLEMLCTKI

[16] = target: SWI/SNF-related matrix-associated actin-dependent regulator of chromatin subfamily A member 2 (Homo sapiens, UniProt P51531); assay: Luminescence-based cell-based high throughput dose response assay to identify activators of the function of SWI/SNF related, matrix associated, actin dependent regulator of chromatin, subfamily a, member 2 (SMARCA2, BRM).; assay type: functional
[17] = target: Mu-type opioid receptor (Homo sapiens, UniProt P35372); assay type: functional, cell-based;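 note: U2OS cells with beta-arrestin recruitment to OPRM1 by beta-gal complementation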
Chain of Mu-type opioid receptor (P35372 whole entry): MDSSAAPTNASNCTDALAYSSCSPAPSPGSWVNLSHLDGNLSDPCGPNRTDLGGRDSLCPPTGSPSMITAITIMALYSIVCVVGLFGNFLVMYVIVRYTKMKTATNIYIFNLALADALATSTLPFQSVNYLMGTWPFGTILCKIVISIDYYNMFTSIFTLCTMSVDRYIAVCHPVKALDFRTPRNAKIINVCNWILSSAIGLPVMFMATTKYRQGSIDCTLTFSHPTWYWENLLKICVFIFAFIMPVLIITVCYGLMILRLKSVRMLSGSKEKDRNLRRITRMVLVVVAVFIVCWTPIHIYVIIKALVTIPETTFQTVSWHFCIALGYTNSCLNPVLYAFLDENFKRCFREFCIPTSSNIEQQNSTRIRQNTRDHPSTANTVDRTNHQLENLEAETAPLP

[18] = Counterscreen for activators of the function of SWI/SNF related, matrix associated, actin dependent regulator of chromatin, subfamily a, member 2 (SMARCA2, BRM): Luminescence-based cell-based high throughput dose response assay to identify non-selective compounds using the VP16 reporter assay.; assay type: functional
[19] = system: HEK293; assay: cells; assay type: functional, cell-based; conditions: Homo sapiens
[20] = target: T6, Oxysterols receptor LXR-beta (Homo sapiens, UniProt P55055); assay type: functional, cell-based;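 note: agonist activity at LXR measured by a cell-based luminescence readout across a dose range, run as a counterscreen for daf-12 agonists; HEK293 cells with Gal4-LXR fusion and GAL4-driven luciferase reporter; potency for activation of Gal4-LXR reporter so compounds are agonists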
T6 sequence (P55055 whole entry): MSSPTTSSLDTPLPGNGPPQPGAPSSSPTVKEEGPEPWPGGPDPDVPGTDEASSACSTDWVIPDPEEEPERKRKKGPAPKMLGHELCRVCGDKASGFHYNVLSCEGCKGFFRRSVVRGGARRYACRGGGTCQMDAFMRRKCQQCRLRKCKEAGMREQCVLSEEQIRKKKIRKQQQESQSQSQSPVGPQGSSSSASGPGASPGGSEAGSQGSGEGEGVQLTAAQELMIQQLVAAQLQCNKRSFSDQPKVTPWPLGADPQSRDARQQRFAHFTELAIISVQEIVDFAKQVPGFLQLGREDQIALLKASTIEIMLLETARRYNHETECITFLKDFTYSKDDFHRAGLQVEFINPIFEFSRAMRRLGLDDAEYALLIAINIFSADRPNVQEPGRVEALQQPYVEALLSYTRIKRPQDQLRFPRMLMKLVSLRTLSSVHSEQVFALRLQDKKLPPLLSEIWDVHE

[21] = target: 5-hydroxytryptamine receptor 2A (Mus musculus, UniProt P35363); assay type: functional, cell-based;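 note: CHO-K1 cells with tagged receptor and beta-arrestin; agonist potency measured as compound-induced activation of the receptor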
Chain of 5-hydroxytryptamine receptor 2A (P35363 whole entry): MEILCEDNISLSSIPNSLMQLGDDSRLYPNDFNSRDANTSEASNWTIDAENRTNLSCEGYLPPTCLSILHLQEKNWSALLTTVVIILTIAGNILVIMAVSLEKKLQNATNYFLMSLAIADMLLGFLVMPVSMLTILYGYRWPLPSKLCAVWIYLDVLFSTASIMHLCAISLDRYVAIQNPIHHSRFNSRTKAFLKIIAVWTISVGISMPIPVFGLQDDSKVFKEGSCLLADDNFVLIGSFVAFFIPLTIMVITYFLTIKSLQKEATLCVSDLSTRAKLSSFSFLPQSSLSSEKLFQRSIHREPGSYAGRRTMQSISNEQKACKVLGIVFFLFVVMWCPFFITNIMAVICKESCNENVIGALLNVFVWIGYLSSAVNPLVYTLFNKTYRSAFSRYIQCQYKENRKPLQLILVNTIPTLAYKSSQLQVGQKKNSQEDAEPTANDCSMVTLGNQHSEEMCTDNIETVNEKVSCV

[22] = target: Cyclin-dependent kinase 5/CDK5 activator 1 (Homo sapiens, UniProt Q00535); assay: blockade of human CDK5 activity – biochemical, cherry-picked samples, set 2, dose response (AID 504545)
Chain of Cyclin-dependent kinase 5/CDK5 activator 1 (Q00535 whole entry): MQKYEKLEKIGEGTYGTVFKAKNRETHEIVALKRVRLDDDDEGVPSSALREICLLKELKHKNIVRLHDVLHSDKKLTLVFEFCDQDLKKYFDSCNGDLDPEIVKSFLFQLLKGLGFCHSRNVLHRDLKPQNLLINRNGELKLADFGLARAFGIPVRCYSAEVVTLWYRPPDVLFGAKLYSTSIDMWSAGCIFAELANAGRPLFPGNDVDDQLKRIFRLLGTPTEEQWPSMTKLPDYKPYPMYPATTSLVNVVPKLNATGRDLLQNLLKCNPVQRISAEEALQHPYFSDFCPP
Chain of Cyclin-dependent kinase 5/CDK5 activator 1 (Q15078 whole entry, further chain): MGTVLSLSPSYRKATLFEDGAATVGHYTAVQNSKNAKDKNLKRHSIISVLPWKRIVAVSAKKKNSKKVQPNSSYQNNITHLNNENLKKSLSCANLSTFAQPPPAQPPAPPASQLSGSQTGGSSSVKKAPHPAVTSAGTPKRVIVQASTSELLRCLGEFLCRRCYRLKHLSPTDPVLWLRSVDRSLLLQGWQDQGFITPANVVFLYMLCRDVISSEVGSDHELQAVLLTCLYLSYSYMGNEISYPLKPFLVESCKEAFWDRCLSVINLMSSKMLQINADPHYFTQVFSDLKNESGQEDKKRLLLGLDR

[23] = target: Cystic fibrosis transmembrane conductance regulator/Golgi-associated PDZ and coiled-coil motif-containing protein (Homo sapiens, UniProt P13569+Q9HD26); assay: potency against CAL PDZ-peptide interaction – biochemical, fluorescence polarization, Cerulean-tagged CAL PDZ, cherry-picks, dose response (AID 504773)
[24] = system: INS1; assay: INS-1E survival protection against cytokine death – cell-based, luminescence, retest, dose response (AID 449756); assay type: functional; conditions: Rattus norvegicus;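 note: cell death triggered by IL-1 beta plus TNF-alpha plus IFN-gamma mixture; protective hits raise ATP signal compared with cytokine alone wells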
[25] = cytotoxicity toward HT-29 cells – cell-based, CellTiter-Glo luminescence, IC50, dose response (AID 1117330); assay type: functional
[26] = target: Aryl hydrocarbon receptor (Homo sapiens, UniProt P35869); conditions: Potency;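 note: confirmatory quantitative high-throughput screen measuring activation of the AhR signaling pathway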
Chain of Aryl hydrocarbon receptor (P35869 whole entry, the tested form may be a part): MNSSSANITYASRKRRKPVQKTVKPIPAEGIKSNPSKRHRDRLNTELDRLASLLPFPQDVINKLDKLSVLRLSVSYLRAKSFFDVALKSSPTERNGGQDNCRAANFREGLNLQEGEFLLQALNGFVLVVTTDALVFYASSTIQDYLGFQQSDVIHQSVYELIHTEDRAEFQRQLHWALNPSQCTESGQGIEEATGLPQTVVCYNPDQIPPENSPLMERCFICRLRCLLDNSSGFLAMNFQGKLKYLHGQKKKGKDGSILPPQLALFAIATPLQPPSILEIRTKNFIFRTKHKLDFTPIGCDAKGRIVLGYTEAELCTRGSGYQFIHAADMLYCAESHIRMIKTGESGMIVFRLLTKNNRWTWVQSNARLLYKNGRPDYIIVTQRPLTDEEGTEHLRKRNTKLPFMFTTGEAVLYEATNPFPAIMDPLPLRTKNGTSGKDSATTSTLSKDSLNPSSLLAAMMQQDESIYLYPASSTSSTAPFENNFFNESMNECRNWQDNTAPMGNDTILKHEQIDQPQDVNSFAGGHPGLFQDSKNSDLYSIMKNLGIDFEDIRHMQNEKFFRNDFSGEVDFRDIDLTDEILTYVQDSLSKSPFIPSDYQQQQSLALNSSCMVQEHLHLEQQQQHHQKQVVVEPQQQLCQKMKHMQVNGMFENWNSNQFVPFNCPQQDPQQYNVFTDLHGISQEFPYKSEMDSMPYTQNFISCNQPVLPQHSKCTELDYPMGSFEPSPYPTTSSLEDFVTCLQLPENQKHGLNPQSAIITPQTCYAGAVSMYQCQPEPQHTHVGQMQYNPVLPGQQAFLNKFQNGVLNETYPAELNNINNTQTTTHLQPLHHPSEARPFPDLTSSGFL

[27] = target: NACHT, LRR and PYD domains-containing protein 3 (Homo sapiens, UniProt Q96P20); assay: NALP3 inhibitors in yeast, dose response, luminescent (AID 488799); assay type: functional
Chain of NACHT, LRR and PYD domains-containing protein 3 (Q96P20 whole entry, the tested form may be a part): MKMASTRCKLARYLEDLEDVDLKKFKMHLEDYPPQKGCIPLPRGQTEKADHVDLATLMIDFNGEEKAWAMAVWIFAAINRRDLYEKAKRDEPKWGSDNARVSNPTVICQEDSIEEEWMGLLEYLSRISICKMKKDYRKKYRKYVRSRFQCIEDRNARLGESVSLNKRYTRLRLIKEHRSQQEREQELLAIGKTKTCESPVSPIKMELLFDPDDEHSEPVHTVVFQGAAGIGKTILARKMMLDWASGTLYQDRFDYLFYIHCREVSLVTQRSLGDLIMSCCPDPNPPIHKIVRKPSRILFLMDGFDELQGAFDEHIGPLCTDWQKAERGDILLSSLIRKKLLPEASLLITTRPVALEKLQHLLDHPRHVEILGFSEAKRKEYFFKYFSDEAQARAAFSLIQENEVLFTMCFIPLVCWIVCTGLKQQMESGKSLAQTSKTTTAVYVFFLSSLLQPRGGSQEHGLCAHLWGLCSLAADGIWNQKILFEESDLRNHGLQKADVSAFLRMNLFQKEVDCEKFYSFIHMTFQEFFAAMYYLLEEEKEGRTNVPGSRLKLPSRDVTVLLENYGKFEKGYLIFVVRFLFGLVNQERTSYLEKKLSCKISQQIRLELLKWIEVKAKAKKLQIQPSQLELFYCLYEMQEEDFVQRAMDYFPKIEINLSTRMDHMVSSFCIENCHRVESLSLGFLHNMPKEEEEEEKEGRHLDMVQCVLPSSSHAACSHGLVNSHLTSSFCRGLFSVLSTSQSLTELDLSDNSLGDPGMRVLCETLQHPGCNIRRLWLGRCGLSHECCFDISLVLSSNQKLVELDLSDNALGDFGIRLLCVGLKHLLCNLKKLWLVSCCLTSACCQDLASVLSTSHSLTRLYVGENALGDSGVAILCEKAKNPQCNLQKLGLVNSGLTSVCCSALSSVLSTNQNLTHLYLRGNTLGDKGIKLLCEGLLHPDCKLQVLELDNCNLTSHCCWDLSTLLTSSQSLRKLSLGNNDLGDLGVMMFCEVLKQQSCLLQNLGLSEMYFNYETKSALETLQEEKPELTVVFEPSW

[28] = HCT116 cell viability decrease, GSK3B pretreatment – CellTiter-Glo, IC50, dose response (AID 1117339); assay type: functional; conditions: HCT-116
[29] = SNU-C1 cell viability reduction, dose response, CellTiter-Glo luminescence (AID 1117323); assay type: functional, cell-based
[30] = Reduced DLD-1 viability, concentration-response, CellTiter-Glo luminescence (AID 1117352); assay type: functional
[31] = cytotoxicity toward Colo320 cells – cell-based, CellTiter-Glo luminescence, IC50, dose response (AID 1117334); assay type: functional; conditions: COLO 320
[32] = CellTiter-Glo luminescence survival assay, SW480 colon tumor line, concentration-response curve, half-maximal inhibitory concentration (AID 1117338); assay type: functional
[33] = cytotoxicity toward HCT116 cells – cell-based, CellTiter-Glo luminescence, IC50, dose response (AID 1117332); assay type: functional; conditions: HCT-116
[34] = RKO cell viability reduction, dose response, CellTiter-Glo luminescence (AID 1117322); assay type: functional

COc1cc(C(=S)N2CCCCC2)ccc1O
366 nM (active) and > 100 µM (inactive): IC50 [4]
active: IC50 [2] 1.68 µM | IC50 [5] 0.958 µM | IC50 [6] 3.34 µM | IC50 [8] 127 nM and 5.55 µM | IC50 [9] 1.2 µM | IC50 [10] 5.11 µM | IC50 [11] 0.331 µM | IC50 [13] 84.6 nM and 3.16 µM
inactive: IC50 [1] > 66 µM | IC50 [7] > 100 µM | IC50 [12] > 66 µM
> 158 µM (not active): IC50 [3]

N#Cc1c(Br)n(C2OC(CO)C(O)C2O)c2ncnc(N)c12 (centres undefined)
inactive: IC50 [15] > 67.5 µM | EC50 [16] > 91.1 µM | EC50 [17] 92.4 µM | EC50 [18] > 91.1 µM | IC50 [19] > 67.5 µM | EC50 [20] > 67.5 µM
active: AC50 [14] 2.09 µM | EC50 [21] 0.482 µM | AC50 [22] 184 µM

COC(=O)[C@H]1[C@H]2C[C@@H]3c4[nH]c5cc(OC)ccc5c4CCN3C[C@H]2C[C@@H](OC(=O)/C=C/c2cc(OC)c(OC)c(OC)c2)[C@@H]1OC [RESCINNAMINE]
active: AC50 [23] 142 µM

O=C(Nc1ccc(Cl)cc1)Nc1ccc(Cl)c(Cl)c1 [TRICLOCARBAN]
active: AC50 [24] 3.69 µM | IC50 [25] 0.383 µM | IC50 [27] 1.49 µM | IC50 [28] 0.362 µM | IC50 [29] 0.335 µM | IC50 [30] 0.323 µM | IC50 [31] 0.362 µM | IC50 [32] 0.897 µM | IC50 [33] 0.228 µM | IC50 [34] 0.288 µM
inconclusive: AC50 [26] 14.1 µM
